Source: ChEMBL document CHEMBL1150862, “Synthetic derivatives of abietic acid with radical scavenging activity” (J Nat Prod, 2001)
Activity calls are given as the source filed them. The rule behind the calls is not given here.

What follows are molecules tested on Radical scavenging activity (assay: Antioxidant activity assessed as DPPH radical scavenging activity by spectrophotometric assay).
Format: functional

**Q.** With `COc1ccc(Nc2cc3c(cc2C(C)C)C[C@@H]2[C@](C)(CCC[C@@]2(C)C(=O)O)C3)cc1` as the molecule, how does the Activity read?
**A.** Its Activity is “Active”.

**Q.** `COc1ccccc1Nc1cc2c(c(N)c1C(C)C)C[C@@H]1[C@](C)(CCC[C@@]1(C)C(=O)O)C2` was tested. Which Activity did it give?
**A.** The Activity was “Active”.

**Q.** `COc1ccc(Nc2cc3c(c([N+](=O)[O-])c2C(C)C)C[C@@H]2[C@](C)(CCC[C@@]2(C)C(=O)O)C3)cc1` was tested. Which Activity did it give?
**A.** The Activity was “Active”.

**Q.** For `CC(C)c1c(Nc2ccccc2)cc2c(c1Nc1ccccc1)C[C@@H]1[C@](C)(CCC[C@@]1(C)C(=O)O)C2`, which Activity is on record?
**A.** Its Activity is “Active”.

**Q.** For `CC(C)c1cc2c(cc1Nc1ccccc1)C[C@@]1(C)CCC[C@@](C)(C(=O)O)[C@@H]1C2`, which Activity is on record?
**A.** Its Activity is “Active”.

**Q.** How did the Activity turn out when `COc1ccccc1Nc1c(C(C)C)ccc2c1C[C@@H]1[C@](C)(CCC[C@@]1(C)C(=O)O)C2` was run?
**A.** The Activity was “Active”.

**Q.** How did the Activity turn out when `COc1ccc(Nc2c(C(C)C)ccc3c2C[C@@H]2[C@](C)(CCC[C@@]2(C)C(=O)O)C3)cc1` was run?
**A.** Its Activity is “Active”.

**Q.** With `COc1ccccc1Nc1cc2c(c([N+](=O)[O-])c1C(C)C)C[C@@H]1[C@](C)(CCC[C@@]1(C)C(=O)O)C2` as the molecule, how does the Activity read?
**A.** Its Activity is “Active”.

**Q.** With `CC(C)c1c(Nc2ccccc2)cc2c(c1N)C[C@@H]1[C@](C)(CCC[C@@]1(C)C(=O)O)C2` as the molecule, how does the Activity read?
**A.** The Activity was “Active”.

**Q.** With `COc1ccccc1Nc1cc2c(c(Nc3ccccc3OC)c1C(C)C)C[C@@H]1[C@](C)(CCC[C@@]1(C)C(=O)O)C2` as the molecule, how does the Activity read?
**A.** The Activity was “Active”.

**Q.** `CC(C)c1ccc2c(c1Nc1ccccc1)C[C@@H]1[C@](C)(CCC[C@@]1(C)C(=O)O)C2` was tested. Which Activity did it give?
**A.** Its Activity is “Active”.

**Q.** `COc1ccc(Nc2cc3c(c(Nc4ccc(OC)cc4)c2C(C)C)C[C@@H]2[C@](C)(CCC[C@@]2(C)C(=O)O)C3)cc1` was tested. Which Activity did it give?
**A.** Its Activity is “Active”.

**Q.** How did the Activity turn out when `COc1ccc(Nc2cc3c(c(N)c2C(C)C)C[C@@H]2[C@](C)(CCC[C@@]2(C)C(=O)O)C3)cc1` was run?
**A.** Its Activity is “Active”.

**Q.** With `COc1ccccc1Nc1cc2c(cc1C(C)C)C[C@@H]1[C@](C)(CCC[C@@]1(C)C(=O)O)C2` as the molecule, how does the Activity read?
**A.** Its Activity is “Active”.

**Q.** How did the Activity turn out when `CC(C)c1c(Nc2ccccc2)cc2c(c1[N+](=O)[O-])C[C@@H]1[C@](C)(CCC[C@@]1(C)C(=O)O)C2` was run?
**A.** The Activity was “Active”.

**Q.** How did the Activity turn out when `Cc1cc(C(C)(C)C)c(O)c(C(C)(C)C)c1` was run?
**A.** Its Activity is “Active”.
